Residue numbers refer to the chain shown, from its start. pKd: −log10 of the molar value.
Key:
[1] = biological target: T1, TrmDEC (Escherichia coli, UniProt P0A873, Y86F); experiment: ITC; assay type: binding
T1 construct: gene trmD; full-length, N-terminal His tag (pET28b), expressed in E. coli BL21(DE3), tag kept
T1 sequence (P0A873 2-255 Y86F): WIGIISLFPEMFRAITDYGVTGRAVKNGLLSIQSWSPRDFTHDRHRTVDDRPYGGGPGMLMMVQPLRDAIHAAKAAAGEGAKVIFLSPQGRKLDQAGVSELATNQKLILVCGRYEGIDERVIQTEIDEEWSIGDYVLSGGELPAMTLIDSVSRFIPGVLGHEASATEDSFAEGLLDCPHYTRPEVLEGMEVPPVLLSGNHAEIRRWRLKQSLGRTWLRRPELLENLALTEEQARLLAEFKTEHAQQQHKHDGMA

[2] = biological target: T2, TrmDEC (Escherichia coli, UniProt P0A873, Y86L); experiment: ITC; assay type: binding
T2 construct: gene trmD; full-length, N-terminal His tag (pET28b), expressed in E. coli BL21(DE3), tag kept
T2 sequence (P0A873 2-255 Y86L): T1 sequence (P0A873 2-255 Y86F) with F85L

## C[S+](CC[C@H](N)C(=O)O)C[C@H]1O[C@@H](n2cnc3c(N)ncnc32)[C@H](O)[C@@H]1O (some centres unmarked) [AdoMet]
[1]
  pKd: 4.55
[2]
  pKd: 4.16
